Experimental data: patent US20180111949A1, “NOVEL INDUSTRIAL CRYSTALLIZATION METHOD OF CEFUROXIME SODIUM AND PREPARATION THEREOF” (HAINAN LINGKANG PHARMACEUTICAL CO., LTD, priority 2016, published 2018)
“And” between values parts separate entries of the source, which are not always exact repeats. Equal entries are not always repeated.

Key:
[1] = Flowability test, angle of repose by funnel method; type: physicochemical; settings: refined Cefuroxime Sodium prepared in Example 1
Procedure: In order to examine the flowability of the refined Cefuroxime Sodium prepared in Example 1, the angle of repose was measured by a funnel method. Test method: The particles were placed in a fixed funnel, and were […] freely to a horizontal plane to form a disk-shaped stacked body with a bottom radius of r, and the height of the stacked body was measured as H. The results were calculated according to the equation of tan θ=H/r and were shown in the following table: […]

[2] = cited from earlier work
[3] = pH, quality research per Chinese Pharmacopoeia 2010 Part 2; type: physicochemical; settings: crystalline powder
Procedure: (§1) Referring to the quality standard of the raw material in “Part 2 of Chinese Pharmacopoeia 2010 Edition”, the quality research on crystalline powder of Cefuroxime Sodium was conducted in Example 1˜4 and Comparative Example 1, and the results were shown as follows: […]

[4] = Clarity of the solution, quality research per Chinese Pharmacopoeia 2010 Part 2; type: physicochemical; settings: compliance with pharmacopoeia standard
Procedure: as §1

[5] = Abnormal toxicity, quality research per Chinese Pharmacopoeia 2010 Part 2; settings: compliance with pharmacopoeia standard
Procedure: as §1

[6] = Bacterial endotoxin, quality research per Chinese Pharmacopoeia 2010 Part 2; settings: compliance with pharmacopoeia standard
Procedure: as §1

[7] = Color of the solution, quality research per Chinese Pharmacopoeia 2010 Part 2; type: physicochemical; settings: compliance with pharmacopoeia standard
Procedure: as §1

SMILES	Angle of repose θ, average value ([1]; average of three measurements) [°]	Angle of repose θ ([1]; single measurements, funnel method)	Solubility in chloroform ([2]; chloroform)	Solubility in ethanol ([2]; ethanol)	Solubility in methanol ([2]; methanol)	Solubility in water ([2]; water)	pH [3]	Clarity of the solution [4]	Abnormal toxicity [5]	Bacterial endotoxin [6]	Color of the solution [7]
CO/N=C(\C(=O)N[C@@H]1C(=O)N2C(C(=O)[O-])=C(COC(N)=O)CS[C@H]12)c1ccco1.[Na+] [Cefuroxime Sodium, Sodium (6R, 7R)-7-[2-furyl (methoxyimino)acetylamino]-3-carbamoyloxymethyl-8-oxo-5-thia-1-azabicyclo [4.2.0]oct-2-ene-2-carboxylate]	26.1	25.9° and 26.1° and 26.2°	insoluble	insoluble	slightly soluble	soluble					
CO/N=C(\C(=O)N[C@@H]1C(=O)N2C(C(=O)[O-])=C(COC(N)=O)CS[C@H]12)c1ccco1.[Na+] [Comparative Example 1, Cefuroxime Sodium]							pH = 7.5	Compliance	Compliance	Compliance	
CO/N=C(\C(=O)N[C@@H]1C(=O)N2C(C(=O)[O-])=C(COC(N)=O)CS[C@H]12)c1ccco1.[Na+] [Example 1, Cefuroxime Sodium]							pH = 7.3	Compliance	Compliance	Compliance	Compliance
CO/N=C(\C(=O)N[C@@H]1C(=O)N2C(C(=O)[O-])=C(COC(N)=O)CS[C@H]12)c1ccco1.[Na+] [Example 2, Cefuroxime Sodium]							pH = 7.5	Compliance	Compliance	Compliance	Compliance
CO/N=C(\C(=O)N[C@@H]1C(=O)N2C(C(=O)[O-])=C(COC(N)=O)CS[C@H]12)c1ccco1.[Na+] [Example 3, Cefuroxime Sodium]							pH = 7.4	Compliance	Compliance	Compliance	Compliance
CO/N=C(\C(=O)N[C@@H]1C(=O)N2C(C(=O)[O-])=C(COC(N)=O)CS[C@H]12)c1ccco1.[Na+] [Example 4, Cefuroxime Sodium]							pH = 7.0	Compliance	Compliance	Compliance	Compliance
